The source of these data is patent US10722514B2 (FLX Bio, Inc., priority 2017, dated 2020).

The structures appear in SMILES notation. A value given as a limit tells only on which side of the number the result lay.

The assay has as its target T1, recombinant full-length USP7 (Homo sapiens, UniProt Q93009).
T1 construct: A 25 μl reaction volume containing recombinant full-length USP7 (62 pM)
Nature of the assay: USP7-mediated ubiquitin-rhodamine cleavage assay. Particulars: recombinant full-length USP7 62 pM; ubiquitin-rhodamine 100 nM; 30-minute incubation with compound, 1 hour reaction at room temperature; read-out: Potency: USP7 IC50. In kind it is biochemical. The gist of the method:
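USP7 (62 pM) in 20 mM HEPES pH 7.3, 150 mM NaCl, 1 mM TCEP, 125 μg/ml BSA was preincubated with compound (1% DMSO) for 30 min at room temperature. Ubiquitin-rhodamine (100 nM final) was then added for 1 hour, the reaction stopped with acetic acid, and fluorescence read; IC50 from 4-parameter fit.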

T1 sequence (Q93009 whole entry): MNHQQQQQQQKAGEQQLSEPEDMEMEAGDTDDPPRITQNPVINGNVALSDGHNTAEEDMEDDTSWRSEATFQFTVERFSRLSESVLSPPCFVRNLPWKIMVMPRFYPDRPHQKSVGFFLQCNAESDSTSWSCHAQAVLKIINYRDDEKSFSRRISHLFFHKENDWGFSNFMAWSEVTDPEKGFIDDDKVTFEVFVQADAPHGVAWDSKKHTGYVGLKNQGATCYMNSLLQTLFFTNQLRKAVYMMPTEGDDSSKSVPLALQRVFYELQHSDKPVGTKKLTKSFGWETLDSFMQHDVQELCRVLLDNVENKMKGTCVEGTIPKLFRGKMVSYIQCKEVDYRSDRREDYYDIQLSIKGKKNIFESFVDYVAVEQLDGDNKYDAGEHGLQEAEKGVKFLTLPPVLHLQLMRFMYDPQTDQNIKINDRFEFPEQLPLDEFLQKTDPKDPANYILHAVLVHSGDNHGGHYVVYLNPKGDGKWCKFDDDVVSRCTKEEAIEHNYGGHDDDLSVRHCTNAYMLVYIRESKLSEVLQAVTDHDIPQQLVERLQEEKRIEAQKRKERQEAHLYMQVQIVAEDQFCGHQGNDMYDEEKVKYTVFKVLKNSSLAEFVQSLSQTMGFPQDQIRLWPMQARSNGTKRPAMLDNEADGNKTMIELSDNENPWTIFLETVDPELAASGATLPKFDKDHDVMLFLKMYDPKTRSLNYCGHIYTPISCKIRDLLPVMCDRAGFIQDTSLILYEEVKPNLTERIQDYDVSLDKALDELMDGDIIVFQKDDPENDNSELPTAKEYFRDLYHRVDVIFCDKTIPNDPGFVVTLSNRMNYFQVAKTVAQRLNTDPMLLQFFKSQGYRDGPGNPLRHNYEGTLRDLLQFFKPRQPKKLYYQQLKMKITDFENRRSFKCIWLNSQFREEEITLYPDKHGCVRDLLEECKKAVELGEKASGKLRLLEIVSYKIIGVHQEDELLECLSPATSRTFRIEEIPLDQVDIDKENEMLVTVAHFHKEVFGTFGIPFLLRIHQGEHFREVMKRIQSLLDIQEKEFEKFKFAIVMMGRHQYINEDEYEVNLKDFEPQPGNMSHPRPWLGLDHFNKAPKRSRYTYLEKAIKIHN

On to `Cc1cc(Cl)cc(-c2ncnc3cc(CN4C(=O)CN(C)C4=O)sc23)c1O[C@@H]1CNC[C@@H]1F` [Example 146, 3-((4-(5-Chloro-2-(((3R,4S)-4-fluoropyrrolidin-3-yl)oxy)-3-methylphenyl)thieno[3,2-d]pyrimidin-6-yl)methyl)-1-methylimidazolidine-2,4-dione], for which the IC50 was below 1 µM.
Next, `Cc1cc(Cl)cc(-c2ccnc3cc(CN4C(=O)CCC4C(F)(F)F)sc23)c1O[C@@H]1CNC[C@@H]1F` (stereo partly drawn) [Example 147, 1-((7-(5-Chloro-2-(((3R,4S)-4-fluoropyrrolidin-3-yl)oxy)-3-methylphenyl)thieno[3,2-b]pyridin-2-yl)methyl)-5-(trifluoromethyl)pyrrolidin-2-one]: below 1 µM; `Cc1cc(Cl)cc(-c2ncnc3cc(Cn4c(C(F)(F)F)cccc4=O)sc23)c1O[C@@H]1CNC[C@@H]1F` [Example 148, 1-((4-(5-Chloro-2-(((3R,4S)-4-fluoropyrrolidin-3-yl)oxy)-3-methylphenyl)thieno[3,2-d]pyrimidin-6-yl)methyl)-6-(trifluoromethyl)pyridin-2(1H)-one]: 10 to 30 µM; `Cc1cc(Cl)cc(-c2ncnc3cc(CN4C(=O)c5ccccc5C4=O)sc23)c1O[C@@H]1CNC[C@@H]1F` [Example 149, 2-((4-(5-Chloro-2-(((3R,4S)-4-fluoropyrrolidin-3-yl)oxy)-3-methylphenyl)thieno[3,2-d]pyrimidin-6-yl)methyl)isoindoline-1,3-dione]: below 1 µM.
To `Cc1cc(Cl)cc(-c2ccnc3cc(CN4C(=O)CCN(C)C4=O)sc23)c1O[C@@H]1CNC[C@@H]1F` [Example 150, 3-((7-(5-Chloro-2-(((3R,4S)-4-fluoropyrrolidin-3-yl)oxy)-3-methylphenyl)thieno[3,2-b]pyridin-2-yl)methyl)-1-methyldihydropyrimidine-2,4(1H,3H)-dione] belongs below 1 µM; to `Cc1cc(Cl)cc(-c2ccnc3cc(Cn4c(=O)ccn(C)c4=O)sc23)c1O[C@@H]1CNC[C@@H]1F` [Example 151, 3-((7-(5-Chloro-2-(((3R,4S)-4-fluoropyrrolidin-3-yl)oxy)-3-methylphenyl)thieno[3,2-b]pyridin-2-yl)methyl)-1-methylpyrimidine-2,4(1H,3H)-dione], below 1 µM; to `Cc1cc(Cl)cc(-c2ccnc3cc(CN4C(=O)CCNC4=O)sc23)c1O[C@@H]1CNC[C@@H]1F` [Example 152, 3-((7-(5-Chloro-2-(((3R,4S)-4-fluoropyrrolidin-3-yl)oxy)-3-methylphenyl)thieno[3,2-b]pyridin-2-yl)methyl)dihydropyrimidine-2,4(1H,3H)-dione], below 1 µM.
To `Cc1cc(Cl)cc(-c2ccnc3cc(Cn4c(=O)cc[nH]c4=O)sc23)c1O[C@@H]1CNC[C@@H]1F` [Example 153, 3-((7-(5-Chloro-2-(((3R,4S)-4-fluoropyrrolidin-3-yl)oxy)-3-methylphenyl)thieno[3,2-b]pyridin-2-yl)methyl)pyrimidine-2,4(1H,3H)-dione] belongs below 1 µM.
Regarding `Cc1cc(Cl)cc(-c2ccnc3cc(CN4C(=O)NC(C)(C)C4=O)sc23)c1O[C@@H]1CNC[C@@H]1F` [Example 154, 3-((7-(5-Chloro-2-(((3R,4S)-4-fluoropyrrolidin-3-yl)oxy)-3-methylphenyl)thieno[3,2-b]pyridin-2-yl)methyl)-5,5-dimethylimidazolidine-2,4-dione], the 50% inhibitory concentration (IC50) is below 1 µM.
For `Cc1cc(Cl)cc(-c2ccnc3cc(CN4C(=O)N(C)C(C)(C)C4=O)sc23)c1O[C@@H]1CNC[C@@H]1F` [Example 155, 3-((7-(5-Chloro-2-(((3R,4S)-4-fluoropyrrolidin-3-yl)oxy)-3-methylphenyl)thieno[3,2-b]pyridin-2-yl)methyl)-1,5,5-trimethylimidazolidine-2,4-dione], the IC50 is below 1 µM.
To `Cc1cc(Cl)cc(-c2ccnc3c(F)c(CO)sc23)c1O[C@@H]1CNC[C@@H]1F` [Example 156, (7-(5-Chloro-2-(((3R,4S)-4-fluoropyrrolidin-3-yl)oxy)-3-methylphenyl)-3-fluorothieno[3,2-b]pyridin-2-yl)methanol] belongs 1 to 10 µM.
Next, `Cc1cc(Cl)cc(-c2ccnc3cc(CN4C(=O)CCC4=O)sc23)c1O[C@H]1CC[C@H](N2CCC2)C1` [Example 157, 1-((7-(2-(((1S,3S)-3-(Azetidin-1-yl)cyclopentyl)oxy)-5-chloro-3-methylphenyl)thieno[3,2-b]pyridin-2-yl)methyl)pyrrolidine-2,5-dione]: below 1 µM; `Cc1cc(Cl)cc(-c2ncnc3cc(CN4C(=O)C5CCCC5C4=O)sc23)c1O[C@@H]1CNC[C@@H]1F` (stereo partly drawn) [Example 158, 2-((4-(5-Chloro-2-(((3R,4S)-4-fluoropyrrolidin-3-yl)oxy)-3-methylphenyl)thieno[3,2-d]pyrimidin-6-yl)methyl)tetrahydrocyclopenta[c]pyrrole-1,3(2H,3aH)-dione]: below 1 µM; `Cc1cc(Cl)cc(-c2ncnc3cc(CN4C(=O)C5CCCCC5C4=O)sc23)c1O[C@@H]1CNC[C@@H]1F` (stereo partly drawn) [Example 159, 2-((4-(5-Chloro-2-(((3R,4S)-4-fluoropyrrolidin-3-yl)oxy)-3-methylphenyl)thieno[3,2-d]pyrimidin-6-yl)methyl)hexahydro-1H-isoindole-1,3(2H)-dione]: 1 to 10 µM.
To `Cc1cc(Cl)cc(-c2ncnc3cc(CN4C(=O)C5CCCN5C4=O)sc23)c1O[C@@H]1CNC[C@@H]1F` (stereo partly drawn) [Example 160, 2-((4-(5-Chloro-2-(((3R,4S)-4-fluoropyrrolidin-3-yl)oxy)-3-methylphenyl)thieno[3,2-d]pyrimidin-6-yl)methyl)tetrahydro-1H-pyrrolo[1,2-c]imidazole-1,3(2H)-dione] belongs 1 to 10 µM; to `Cc1cc(Cl)cc(-c2ccnc3cc(Cn4c(=O)ccn(C)c4=O)sc23)c1O[C@H]1CCCNC1` [Example 161, (S)-3-((7-(5-Chloro-3-methyl-2-(piperidin-3-yloxy)phenyl)thieno[3,2-b]pyridin-2-yl)methyl)-1-methylpyrimidine-2,4(1H,3H)-dione], below 1 µM; to `Cc1cc(Cl)cc(-c2ccnc3cc(CN4C(=O)CCN(C)C4=O)sc23)c1O[C@H]1CCCNC1` [Example 162, (S)-3-((7-(5-Chloro-3-methyl-2-(piperidin-3-yloxy)phenyl)thieno[3,2-b]pyridin-2-yl)methyl)-1-methyldihydropyrimidine-2,4(1H,3H)-dione], below 1 µM.
For the molecule `Cc1cc(Cl)cc(-c2ccnc3c(F)c(CN4C(=O)CCC4=O)sc23)c1O[C@H]1CCCNC1` [Example 163, (S)-1-((7-(5-Chloro-3-methyl-2-(piperidin-3-yloxy)phenyl)-3-fluorothieno[3,2-b]pyridin-2-yl)methyl)pyrrolidine-2,5-dione], the 50% inhibitory concentration (IC50) is below 1 µM.
Next, `CCC(O)c1cc2nccc(-c3cc(Cl)cc(C)c3O[C@H]3CCCNC3)c2s1` (stereo partly drawn) [Example 164, 1-(7-(5-Chloro-3-methyl-2-(((S)-piperidin-3-yl)oxy)phenyl)thieno[3,2-b]pyridin-2-yl)propan-1-ol]: 1 to 10 µM.
Take `Cc1cc(Cl)cc(-c2ccnc3cc(CO)sc23)c1OC1CC2CNC1C2` (centres unmarked) [Example 165, (7-(2-((2-Azabicyclo[2.2.1]heptan-6-yl)oxy)-5-chloro-3-methylphenyl)thieno[3,2-b]pyridin-2-yl)methanol]: the IC50 lay within 1 to 10 µM.
To `OCc1cc2nccc(-c3cc(Cl)cc(Br)c3O[C@H]3CCCNC3)c2s1` [Example 166, (S)-(7-(3-Bromo-5-chloro-2-(piperidin-3-yloxy)phenyl)thieno[3,2-b]pyridin-2-yl)methanol] belongs 1 to 10 µM; to `Cc1cc(Cl)cc(-c2ccnc3ccsc23)c1O[C@H]1CCCNC1` [Example 167, (S)-7-(5-Chloro-3-methyl-2-(piperidin-3-yloxy)phenyl)thieno[3,2-b]pyridine], 10 to 30 µM.
To `Cc1cc(Cl)cc(-c2ccnc3cc(CO)sc23)c1OC[C@@H]1CNCCN1` [Example 168, (S)-(7-(5-Chloro-3-methyl-2-(piperazin-2-ylmethoxy)phenyl)thieno[3,2-b]pyridin-2-yl)methanol] belongs 10 to 30 µM; to `OCc1cc2nccc(-c3cc(F)cc(Br)c3O[C@H]3CCCNC3)c2s1` [Example 169, (S)-(7-(3-Bromo-5-fluoro-2-(piperidin-3-yloxy)phenyl)thieno[3,2-b]pyridin-2-yl)methanol], 10 to 30 µM.
Next, `Cc1cc(Cl)cc(-c2ncnc3cc(Cn4c(=O)ccn(CC(F)(F)F)c4=O)sc23)c1O[C@@H]1CCNC[C@@H]1F` [Example 170, 3-((4-(5-Chloro-2-(((3S,4R)-3-fluoropiperidin-4-yl)oxy)-3-methylphenyl)thieno[3,2-d]pyrimidin-6-yl)methyl)-1-(2,2,2-trifluoroethyl)pyrimidine-2,4(1H,3H)-dione]: below 1 µM; `Cc1cc(Cl)cc(-c2ccnc3ccsc23)c1OC1CC2CNC1C2` (centres unmarked) [Example 171, 7-(2-((2-Azabicyclo[2.2.1]heptan-6-yl)oxy)-5-chloro-3-methylphenyl)thieno[3,2-b]pyridine]: 10 to 30 µM.
For `CCC(O)c1cc2nccc(-c3cccc(C)c3OC3CCNCC3)c2s1` (centres unmarked) [Example 172, 1-(7-(3-Methyl-2-(piperidin-4-yloxy)phenyl)thieno[3,2-b]pyridin-2-yl)propan-1-ol], the IC50 was in the range of 10 to 30 µM.
Next, `Cc1cc(Cl)cc(-c2ccnc3cc(Cn4c(=O)ccn(CC(F)(F)F)c4=O)sc23)c1O[C@@H]1CCNC[C@@H]1C` [Example 173, 3-((7-(5-Chloro-3-methyl-2-(((3S,4R)-3-methylpiperidin-4-yl)oxy)phenyl)thieno[3,2-b]pyridin-2-yl)methyl)-1-(2,2,2-trifluoroethyl)pyrimidine-2,4(1H,3H)-dione]: below 1 µM; `CCC(O)c1cc2ncnc(-c3cc(Cl)cc(C)c3O[C@H]3CCCNC3)c2s1` (stereo partly drawn) [Example 174, 1-(4-(5-Chloro-3-methyl-2-(((S)-piperidin-3-yl)oxy)phenyl)thieno[3,2-d]pyrimidin-6-yl)propan-1-ol]: 1 to 10 µM.
